Results as given in patent publication US20240041042A1, “1-(PYRIDYL)-5-AZINYLPYRAZOLE DERIVATIVES, AND THEIR USE FOR CONTROL OF UNDESIRED PLANT GROWTH” (Bayer Aktiengesellschaft, priority 2020, published 2024).
Read-outs that look alike come from different tables or passages of the source.

Columns and labels:
Type in all cases: in vivo
[1] = test system: Echinochloa crus-galli (ECHCG); test: Post-emergence herbicidal action against ECHCG
Method in brief: (§1)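 Values are percent visual activity (0% like control, 100% plants dead) after about 3 weeks in the greenhouse. Treatment: post-emergence spray at one-leaf stage, 600 l/ha spray volume, 0.5% additive, doses 320 g/ha or lower.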

Lolium rigidum (LOLRI) [2] = test: Pre-emergence herbicidal action against LOLRI
Method in brief: (§2)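 Application rates ran to 320 g/ha or lower, with several dosages tested on the same weeds. The compound, as wettable powder or emulsion concentrate, is sprayed pre-emergence onto soil over sown seeds; greenhouse growth follows, and effect is rated visually after roughly 3 weeks.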

[3] = test system: Abutilon theophrasti (ABUTH); test: Pre-emergence herbicidal action against ABUTH; conditions: Dosage column 320 g/ha (title prints 3200 g/ha); scored visually after about 3 weeks; 100% = plants have died
Method in brief: as §2

[4] = test system: Echinochloa crus-galli (ECHCG); test: Pre-emergence herbicidal action against ECHCG
Method in brief: as §2

[5] = test system: Pharbitis purpurea (PHBPU); test: Post-emergence herbicidal action against PHBPU; conditions: dosage 320 g/ha
Method in brief: as §1

Viola tricolor (VIOTR) [6] = test: Pre-emergence herbicidal action against VIOTR
Method in brief: as §2

Setaria viridis (SETVI) = test: Pre-emergence herbicidal action against SETVI
Method in brief: as §2

[7] = test system: Alopecurus myosuroides (ALOMY); test: Pre-emergence herbicidal action against ALOMY; conditions: scored visually after about 3 weeks, 100% = plants have died
Method in brief: as §2

[8] = test system: Alopecurus myosuroides (ALOMY); test: Post-emergence herbicidal action against ALOMY; conditions: visual rating about 3 weeks after treatment vs untreated controls (100% = plants have died, 0% = like control plants)
Method in brief: as §1

[9] = test system: Matricaria inodora (MATIN); test: Pre-emergence herbicidal action against MATIN
Method in brief: as §2

Lolium rigidum (LOLRI) [10] = test: Post-emergence herbicidal action against LOLRI
Method in brief: as §1

Avena fatua (AVEFA) [11] = test: Post-emergence herbicidal action against AVEFA; conditions: visual rating about 3 weeks after treatment
Method in brief: as §1

[12] = test system: Matricaria inodora (MATIN); test: Post-emergence herbicidal action against MATIN
Method in brief: as §1

[13] = test system: Amaranthus retroflexus (AMARE); test: Pre-emergence herbicidal action against AMARE; conditions: visual scoring after about 3 weeks vs untreated controls
Method in brief: as §2

[14] = test system: Verconica persica (VERPE); test: Pre-emergence herbicidal action against VERPE
Method in brief: as §2

[15] = test system: Pharbitis purpurea (PHBPU); test: Pre-emergence herbicidal action against PHBPU
Method in brief: as §2

[16] = test system: Verconica persica (VERPE); test: Post-emergence herbicidal action against VERPE
Method in brief: as §1

Viola tricolor (VIOTR) [17] = test: Post-emergence herbicidal action against VIOTR
Method in brief: as §1

[18] = test system: Polygonum convolvulus (POLCO); test: Pre-emergence herbicidal action against POLCO
Method in brief: as §2

Avena fatua (AVEFA) [19] = test: Pre-emergence herbicidal action against AVEFA; conditions: visual scoring after about 3 weeks vs untreated controls
Method in brief: as §2

Zea mays (ZEAMX) = conditions: 20 g/ha, ZEAMX, effect in comparison to untreated controls
Method in brief: (§3)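 Percent effect on the crop was judged by eye against untreated controls, where 0% means like control and 100% means dead plants. Plants had been sprayed post-emergence at the one-leaf stage and then kept under optimum greenhouse conditions for about 3 weeks.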

Oryza sativa (ORYSA) = conditions: crop plant compatibility
Method in brief: as §3

SMILES | Post-emergence action against ECHCG in % ([1]; dosage 80 g/ha) | Pre-emergence action against LOLRI in % (Lolium rigidum (LOLRI) [2]; dosage 80 g/ha) | Pre-emergence action against LOLRI in % (Lolium rigidum (LOLRI) [2]; dosage 320 g/ha) | Pre-emergence action against ABUTH [3] | Pre-emergence action against ECHCG in % ([4]; dosage 80 g/ha) | Pre-emergence action against ECHCG in % ([4]; dosage 320 g/ha) | Pre-emergence action against VIOTR in % (Viola tricolor (VIOTR) [6]; 320 g/ha, Viola tricolor) | Pre-emergence action against VIOTR in % (Viola tricolor (VIOTR) [6]; dosage 80 g/ha) | Pre-emergence action against SETVI in % (Setaria viridis (SETVI); dosage 320 g/ha) | Pre-emergence action against ALOMY ([7]; 80 g/ha) | Pre-emergence action against ALOMY ([7]; 320 g/ha) | Post-emergence action against ALOMY in % ([8]; 80 g/ha) | Pre-emergence action against MATIN in % ([9]; dosage 320 g/ha) | Post-emergence action against LOLRI in % (Lolium rigidum (LOLRI) [10]; dosage 80 g/ha) | Post-emergence action against AVEFA in % (Avena fatua (AVEFA) [11]; 80 g/ha) | Post-emergence action against MATIN in % ([12]; dosage 80 g/ha) | Pre-emergence action against AMARE in % ([13]; 80 g/ha) | Pre-emergence action against AMARE in % ([13]; 320 g/ha) | Pre-emergence action against VERPE in % ([14]; dosage 320 g/ha) | Pre-emergence action against PHBPU in % ([15]; dosage 320 g/ha) | other results
CCOC(=O)[C@@H](C)Oc1nn(-c2ncccc2F)c(-c2ccc(F)nc2)c1C(F)(F)F [Example I-308] | 90% | 100% | 100% | 100% | 100% | 100% | 100% | 100% | 100% | 100% | 100% | 100% | 100% | 90% | 90% | 80% | 100% | 100% | 100% | 90% | Post-emergence action against ECHCG in % ([1]; dosage 320 g/ha): 90%; Post-emergence action against PHBPU in % [5]: 90%; Post-emergence action against ALOMY in % ([8]; 320 g/ha): 100%; Pre-emergence action against MATIN in % ([9]; dosage 80 g/ha): 100%; Post-emergence action against LOLRI in % (Lolium rigidum (LOLRI) [10]; dosage 320 g/ha): 100%; Post-emergence action against AVEFA in % (Avena fatua (AVEFA) [11]; 320 g/ha): 90%; Post-emergence action against MATIN in % ([12]; dosage 320 g/ha): 90%; Pre-emergence action against VERPE in % ([14]; dosage 80 g/ha): 100%; Pre-emergence action against PHBPU in % ([15]; dosage 80 g/ha): 90%; Post-emergence action against VERPE in % ([16]; 320 g/ha, VERPE): 90%; Post-emergence action against VERPE in % ([16]; dosage 80 g/ha): 90%; Post-emergence action against VIOTR in % (Viola tricolor (VIOTR) [17]; 80 g/ha): 90%; Post-emergence action against VIOTR in % (Viola tricolor (VIOTR) [17]; 320 g/ha): 90%; Pre-emergence action against POLCO in % ([18]; dosage 80 g/ha): 100%; Pre-emergence action against POLCO in % ([18]; dosage 320 g/ha): 100%; Pre-emergence action against AVEFA in % (Avena fatua (AVEFA) [19]; 80 g/ha): 100%; Pre-emergence action against AVEFA in % (Avena fatua (AVEFA) [19]; 320 g/ha): 100%
C[C@@H](Oc1nn(-c2ncccc2F)c(-c2ccc(F)nc2)c1C(F)(F)F)C(=O)O [Example I-317] | 80% | 100% | 100% | 90% | 100% | 100% | 100% | 100% | 90% | 100% | 100% | 100% | 100% | 90% | 90% | 90% | 100% | 100% | 100% | 90% | Post-emergence action against ECHCG in % ([1]; dosage 320 g/ha): 90%; Post-emergence action against PHBPU in % [5]: 80%; Pre-emergence action against SETVI in % (Setaria viridis (SETVI); dosage 80 g/ha): 80%; Post-emergence action against ALOMY in % ([8]; 320 g/ha): 100%; Pre-emergence action against MATIN in % ([9]; dosage 80 g/ha): 100%; Post-emergence action against LOLRI in % (Lolium rigidum (LOLRI) [10]; dosage 320 g/ha): 90%; Post-emergence action against AVEFA in % (Avena fatua (AVEFA) [11]; 320 g/ha): 90%; Post-emergence action against MATIN in % ([12]; dosage 320 g/ha): 90%; Pre-emergence action against VERPE in % ([14]; dosage 80 g/ha): 80%; Pre-emergence action against PHBPU in % ([15]; dosage 80 g/ha): 90%; Post-emergence action against VERPE in % ([16]; 320 g/ha, VERPE): 90%; Post-emergence action against VERPE in % ([16]; dosage 80 g/ha): 90%; Post-emergence action against VIOTR in % (Viola tricolor (VIOTR) [17]; 80 g/ha): 90%; Post-emergence action against VIOTR in % (Viola tricolor (VIOTR) [17]; 320 g/ha): 90%; Pre-emergence action against POLCO in % ([18]; dosage 80 g/ha): 100%; Pre-emergence action against POLCO in % ([18]; dosage 320 g/ha): 100%; Pre-emergence action against AVEFA in % (Avena fatua (AVEFA) [19]; 80 g/ha): 90%; Pre-emergence action against AVEFA in % (Avena fatua (AVEFA) [19]; 320 g/ha): 100%
CCOC(=O)[C@@H](C)Oc1nn(-c2ncccc2F)c(-c2ccc(F)nc2)c1Br [Example I-33] | 90% | 90% | 100% | 80% | 90% | 100% | 100% | 100% | 100% | 100% | 100% | 90% | 90% | 80% | 90% | 80% | 90% | 100% | 100% | 90% | Pre-emergence action against SETVI in % (Setaria viridis (SETVI); dosage 80 g/ha): 90%; Post-emergence action against ZEAMX in % (crop plant compatibility) (Zea mays (ZEAMX)): 10%; Post-emergence action against ORYSA in % (Oryza sativa (ORYSA); 20 g/ha, effect vs untreated controls): 0%; Post-emergence action against ORYSA in % (Oryza sativa (ORYSA); 80 g/ha, effect in comparison to untreated controls): 10%; Post-emergence action against VERPE in % ([16]; dosage 80 g/ha): 90%; Pre-emergence action against POLCO in % ([18]; dosage 80 g/ha): 90%; Pre-emergence action against POLCO in % ([18]; dosage 320 g/ha): 100%; Pre-emergence action against AVEFA in % (Avena fatua (AVEFA) [19]; 80 g/ha): 80%; Pre-emergence action against AVEFA in % (Avena fatua (AVEFA) [19]; 320 g/ha): 100%
